# Test results taken from patent publication US20250092069A1, “SILYL-LIPID CA[…] ENHANCED BIOLOGICAL ACTIVITY” (The Regents of the University of California, priority 2022, published 2025).
# pEC50, pIC50: −log10 of the molar value.
# How the values were obtained:
# CB2 [1] = target: T1, CB2 (Homo sapiens, UniProt P34972); assay: CB2 β-arrestin recruitment agonist assay (Eurofin's); format: cell-based; conditions: for Emax / pEC50: β-arrestin recruitment, agonist mode; for pEC50: read-out: RC50 (EC50), agonist, CB2
# T1 sequence (P34972 whole entry): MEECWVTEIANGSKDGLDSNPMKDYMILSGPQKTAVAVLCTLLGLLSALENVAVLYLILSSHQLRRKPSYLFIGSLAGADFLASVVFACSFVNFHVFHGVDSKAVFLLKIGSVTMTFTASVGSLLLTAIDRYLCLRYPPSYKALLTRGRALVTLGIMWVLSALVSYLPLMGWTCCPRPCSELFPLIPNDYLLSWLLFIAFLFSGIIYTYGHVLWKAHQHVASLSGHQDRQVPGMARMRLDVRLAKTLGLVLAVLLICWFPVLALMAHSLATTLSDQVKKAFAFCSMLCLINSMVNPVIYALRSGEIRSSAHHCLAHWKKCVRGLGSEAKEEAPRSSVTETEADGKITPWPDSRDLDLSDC
# TNF-α release = conditions: at 30 min, LPS-induced model; cited from earlier work
# [2] = cited from earlier work
# CB2 [3] = target: T1, CB2; assay: CB2 β-arrestin recruitment antagonist assay (Eurofin's); format: cell-based; conditions: antagonist mode, 0.0053 μM CP55940; for pIC50: β-arrestin recruitment, read-out: RC50 (IC50), antagonist, CB2
# Text: (§1) For antagonist assays, data was normalized to the maximal and minimal response observed in the presence of EC80 ligand and vehicle.
# CB1 [4] = target: T2, CB1 (Homo sapiens, UniProt P21554); assay: CB1 β-arrestin recruitment antagonist assay (Eurofin's); format: cell-based; conditions: antagonist mode, 0.016 μM CP55940; for pIC50: β-arrestin recruitment, read-out: RC50 (IC50), antagonist, CB1
# T2 sequence (P21554 whole entry): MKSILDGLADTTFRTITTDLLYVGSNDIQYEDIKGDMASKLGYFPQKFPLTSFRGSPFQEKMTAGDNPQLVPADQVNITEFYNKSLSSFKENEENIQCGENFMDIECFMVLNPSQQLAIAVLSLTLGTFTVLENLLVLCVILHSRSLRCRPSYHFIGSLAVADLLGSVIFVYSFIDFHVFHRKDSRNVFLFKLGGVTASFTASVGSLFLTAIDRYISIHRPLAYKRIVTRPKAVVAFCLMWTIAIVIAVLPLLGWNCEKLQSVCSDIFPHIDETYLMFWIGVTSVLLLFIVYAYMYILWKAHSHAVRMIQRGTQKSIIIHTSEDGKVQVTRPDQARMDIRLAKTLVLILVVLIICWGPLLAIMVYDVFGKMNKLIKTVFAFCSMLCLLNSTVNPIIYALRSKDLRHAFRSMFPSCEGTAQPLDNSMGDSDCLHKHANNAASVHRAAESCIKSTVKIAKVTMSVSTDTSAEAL
# Text: as §1
# CB1 [5] = target: T2, CB1; assay: CB1 β-arrestin recruitment agonist assay (Eurofin's); format: cell-based; conditions: agonist mode; for pEC50: read-out: RC50 (EC50), agonist, CB1
# [6] = normalized to response with EC80 ligand and vehicle
compound,measurement,setting,value
"CCCCCCC(C)(C)c1ccc([C@@H]2C[C@H](O)CC[C@H]2CCCO)c(O)c1 [CP55,940, reference compound]",Emax,CB2 [1],101%
Cc1ccc(-n2nc(C(C)(C)C)cc2NC(=O)Nc2ccc(OCCN3CCOCC3)c3ccccc23)cc1 [BIRB-796],TNF-α suppression,TNF-α release,41%
CC(C)(C)c1ccccc1 [t-butylbenzene],Log P,[2],4.0
C[Si]1(C)CC(C(=O)O)N(C(=O)OCC2c3ccccc3-c3ccccc32)C1 (stereo not drawn) [Fmoc-Sip],Log P,[2],1.3
C=C(C)[C@H]1CCC(C)=C[C@@H]1c1c(O)cc([Si](C)(C)CCCCCC)cc1O [AAC-01],Emax,CB2 [3]; [6],69.7%
same,pIC50,CB2 [3],5.73
same,Emax,CB1 [4]; [6],86.4%
same,pIC50,CB1 [4],5.69
same,Emax,CB1 [5],64.8%
same,pEC50,CB1 [5],7.48
same,Emax,CB2 [1],70%
same,pEC50,CB2 [1],8.38
"Cc1c(C(=O)NN2CCOCC2)nn(-c2ccc(Cl)cc2Cl)c1-c1ccc(I)cc1 [AM281, reference compound]","Emax, antagonist, CB1",CB1 [4]; [6],106.6%
same,pIC50,CB1 [4],7.98
C[Si](C)(C)c1ccccc1 [trimethylsilyl-benzene],Log P,[2],4.7
C=C(C)[C@H]1CCC(C)=C[C@@H]1c1c(O)cc(CC[Si](C)(C)CCCC)cc1O [AAC-02],pIC50,CB2 [3],< 5.00
same,Emax,CB1 [4]; [6],71.1%
same,pIC50,CB1 [4],5.65
same,pEC50,CB1 [5],< 5.00
same,selectivity for CB2 vs CB1,CB2 [1]; agonist EC50 CB1 vs CB2,500 ×
same,Emax,CB2 [1],50.3%
same,pEC50,CB2 [1],7.74
O=C(O)[C@@H]1CCCN1C(=O)OCC1c2ccccc2-c2ccccc21 [Fmoc-Pro],Log P,[2],0.094
SR 144528 [reference compound],"Emax, antagonist, CB2",CB2 [3]; [6],101.6%
